In patent publication US20250302080A1, “SWEETNESS AND/OR FLAVOR ENHANCER” (AJINOMOTO CO., INC., priority 2022, published 2025):

Experiments:
Conditions in all cases: added alone, 3.0 points or more
[1] = Sensory evaluation of sweetness intensity in sucrose-containing cafe au lait (Experimental Examples 6-10)
Protocol: The starting materials were mixed according to the blending rate in Table 6 to prepare a cafe au lait containing sucrose (hereinafter referred to as “negative control cafe au lait”).
A sensory evaluation of the presence or absence of sweetness intensity enhancement was performed for each sample by a panel of four experts according to the following evaluation criteria.
(§1) Sweetness intensity was evaluated by 0.0 to 10.0 point based on the following reference samples (negative control (hereinafter referred to as NC) (0.0 point); reference 1 (hereinafter referred to as R1) (5.0 points); reference 2 (hereinafter referred to as R2) (10.0 points)). The average score (rounded to two decimal places) of each expert panelist was calculated. An average score of 3.0 points or more was considered to be functional. • NC (0.0 point): cafe au lait prepared by mixing starting materials at the blending rate in Table 6 (i.e., negative control cafe au lait). • R1 (5.0 points): drink with 0.15 g of sucrose added per 99.85 g of NC. • R2 (10.0 points): drink with 0.30 g of sucrose added per 99.70 g of NC.
A sensory evaluation of sweetness intensity was performed for each sample by a panel of four experts according to the same evaluation criteria as in Experimental Example 6.
A sensory evaluation of the presence or absence of sweetness intensity enhancement was performed for each sample by a panel of four experts according to the same evaluation criteria as in Experimental Example 6.

[2] = Sensory evaluation of sweetness intensity in RebA solution (Experimental Example 12)
Protocol: A negative control RebA solution (0.073 wt % […] solution) was prepared by dissolving RebA in filtered water.
A sensory evaluation of sweetness intensity was performed for each sample by a panel of three experts according to the following evaluation criteria.
Sweetness intensity was evaluated by 0.0 to 10.0 points based on the following reference samples (negative control (hereinafter referred to as NC) (0.0 point); reference 1 (hereinafter referred to as R1) (5.0 points); reference 2 (hereinafter referred to as R2) (10.0 points)). The average score (rounded to two decimal places) of each expert panelist was calculated. An average score of 3.0 points or more was considered to be functional. • NC (0.0 point): 0.073 wt % RebA solution (solvent: filtered water) • R1 (5.0 points): 0.077 wt % RebA solution (solvent: filtered water) • R2 (10.0 points): 0.080 wt % RebA solution (solvent: filtered water)

[3] = Sensory evaluation of cafe au lait flavor intensity in sucrose-containing cafe au lait (Experimental Example 16)
Protocol: Negative control cafe au lait was prepared by the same method as in Experimental Example 6.
A sensory evaluation of the presence or absence of cafe au lait flavor intensity enhancement was performed for each sample by a panel of four experts according to the following evaluation criteria.
as §1, with “Cafe au lait flavor” for “Sweetness”, “6 in Experimental Example 6” for “6”, “0.3” for “0.30”

[4] = Sensory evaluation of sweetness intensity in RebM solution (Experimental Examples 20-21)
Protocol: A negative control RebM solution (0.063 wt % RebM solution) was prepared by dissolving RebM in filtered water.
(§2) A sensory evaluation of sweetness intensity was performed for each sample by a panel of four experts according to the following evaluation criteria.
(§3) Sweetness intensity was evaluated by 0.0 to 10.0 points based on the following reference samples (negative control (hereinafter referred to as NC) (0.0 point); reference 1 (hereinafter referred to as R1) (3.0 points), reference 2 (hereinafter referred to as R2) (5.0 points); reference 3 (hereinafter referred to as R3) (10.0 points)). The average score (rounded to two decimal places) of each expert panelist was calculated. An average score of 3.0 points or more was considered to be functional. • NC (0.0 point): 0.063 wt % RebM solution (solvent: filtered water) • R1 (3.0 points): 0.063 wt % RebM solution (solvent: filtered water)+dodecanoic acid (1 ppb) • R2 (5.0 points): 0.066 wt % RebM solution (solvent: filtered water) • R3 (10.0 points): 0.069 wt % RebM solution (solvent: filtered water)
A sensory evaluation of sweetness intensity was performed for each sample by a panel of four experts according to the same evaluation criteria as in Experimental Example 20.

[5] = Sensory evaluation of sweetness intensity in sucrose solution (Experimental Examples 25-27)
Protocol: A negative control sucrose solution (0.7 wt % sucrose solution) was prepared by dissolving sucrose in filtered water.
as §2
as §3, with “point): 7.0” for “point): 0.063”, “% sucrose” for “% RebM”, “points): 7.3” for “points): 0.063”, “filtered water)” for “filtered water)+dodecanoic acid (1 ppb)”, “points): 7.5” for “points): 0.066”, “points): 8.0” for “points): 0.069”
A sensory evaluation of sweetness intensity was performed for each sample by a panel of four experts according to the same evaluation criteria as in Experimental Example 25.

SMILES	concentration at which a sweetness-enhancing effect was confirmed [1]	concentration at which a sweetness-enhancing effect was confirmed [2]	concentration at which a cafe au lait flavor-enhancing effect was confirmed [3]	concentration at which a sweetness-enhancing effect was confirmed [4]	concentration at which a sweetness-enhancing effect was confirmed [5]
CC1=C(O)C(=O)CC1 [cyclotene]	≥ 0.1 ppb	10 ppb	≥ 0.1 ppb	10 ppb	
CCCCCCCCCC(=O)O [decanoic acid]	≥ 1 ppb	10 ppb	≥ 0.01 ppb	10 ppb	10 ppb
CC(C)CCC(=O)O [4-methylpentanoic acid]	≥ 0.1 ppb	100 ppb	≥ 1 ppb	100 ppb	
